Source: US20120142731A1, “METHODS OF INHIBITING VIRAL INFECTION” (Functional Genetics, Inc., priority 2007, published 2012)
pEC50: −log10 of the molar value.

Experiments:
HBV [1] = assay: HBV primary assay in HepG2 cells (virion DNA); type: cell-based, Hepatitis B virus; conditions: blinded NIAID study
[2] = mammalian models; oral, IP, IV administration; cited from earlier work
HIV-1 = HIV-1 luciferase assay in infected MT-4 cells
HBV [3] = assay: Viral release assay, HBV from Huh1 cells; type: cell-based, Hepatitis B virus
cowpox = assay: organism not typed; type: cell-based; conditions: Vero
PRRS virus = assay: PRRS inhibition in primary porcine lung alveolar macrophages; type: cell-based, porcine reproductive and respiratory syndrome (PRRS) virus; conditions: administration 72 hours post infection
Description: As noted above, important mammalian hosts treatable by this family of compounds include not only humans, but veterinarily and commercially important animals. Although monkeys, dogs, cats, mice, rats, horses, rabbits, cattle, sheep and goats are all important hosts to be treated for viral infection, pigs may be the dominant commercial animal, worldwide. The United States Department of Agriculture has characterized PRRS virus as a significant, worldwide, agricultural concern related to animal health and causes large economic losses to producers, and labeled a biosecurity threat. (Project 2008-2017).

Stability to light = type: physicochemical
Description: R24 is subject to straight forward synthesis. […] The range of carriers available, is therefore, quite large. As a consequence, the compositions and methods of this invention embrace the FGI-104 compounds as neat solids, as pharmaceutically suitable preparations, in a pharmaceutically acceptable carrier of a variety of types. Compositions of the present invention may further comprise a pharmaceutical composition comprising a therapeutically effective amount of any of the small molecules (or combinations of small molecules) described above together with other materials, such as a suitable carrier, excipients, etc., for administration to a human or animal experiencing a viral infection or at risk of a viral infection. Such pharmaceutical compositions may be in solid, gel or liquid form and may be administered as appropriate to an individual IV, IM, IP or parenterally, topically, subcutaneously, orally, or through mucosal surfaces and routes (including, for example, rectal and vaginal suppositories). The exact dosage corresponding to a therapeutically effective amount will vary from mammal to mammal and virus to virus. […]

in vitro = conditions: African green monkey
N5A of HCV = type: cell-based, Hepatitis C virus; conditions: 2.5 uM
replicon formation = type: cell-based
HCV [4] = assay: Viral release assay, HCV from Huh1 cells
HCV [5] = type: cell-based, Hepatitis C virus
[6] = tested on: Venezuelan Equine Encephalomyelitis (VEE); type: cell-based; conditions: 25 uM, administered 3 days post-infection
[7] = 28 day course of administration; cited from earlier work
malaria = conditions: cited from earlier work

Row | SMILES | activity as measured by virion DNA (HBV [1]) | tolerability [2] | pEC50 (HIV-1; Human immunodeficiency virus 1, MT4, 72 h) | luciferase detection (HIV-1; MT-4 cells, relatively low dose, 72 hours post infection) | preventing viral release (HBV [3]) | pEC50 (cowpox) | effectiveness as reflected by the EC90 value (PRRS virus) | stability to light (Stability to light) | CC50 (in vitro) | signal protein N5A of HCV in protein blot (N5A of HCV) | inhibition of replicon formation (replicon formation) | preventing viral release (HCV [4]) | inhibition of the virus (luciferase signal) (HCV [5]) | inhibition of VEE [6] | chromosomal instability [7] | efficacy against chloroquinoline-resistant malarial strains (malaria; chloroquinoline-resistant strains) | efficacy against the parasite based disease (malaria) (malaria; compared with chloroquinoline)
1 | CC(C)(C)NCc1cc(Nc2ccnc3cc(Cl)ccc23)cc(-c2ccc(Cl)cc2)c1O [Compound R24, 4′-chloro-5-[(7-chloro-4-quinolinyl)amino]-3-(1,1-dimethylethylamino)methyl [1,1′-biphenyl]-2-ol] | high level of activity | well tolerated | 5.07 | effective zero | effective in preventing viral release | 6.60 | spectacular effectiveness | instability to light | > 25 µM | completely missing | does little to inhibit replicon formation | effective in preventing viral release | 100% | dramatic inhibition | not to induce significant chromosomal instability |  | 
2 | CC(C)(C)NCc1cc(Nc2ccnc3cc(Cl)ccc23)cc(-c2ccc(Cl)cc2)c1O.Cl.Cl [WR-228,258 2HCl, 4′-chloro-5-[(7-chloro-4-quinolinyl)amino]-3-(1,1-dimethylethylamino)methyl[1,1′-biphenyl]-2-ol dihydrochloride] |  | well tolerated |  |  |  |  |  |  |  |  |  |  |  |  |  | not effective | effective against the parasite based disease at about the same level as the dominant treatment
